Results from patent US4250259A, “Microbiological production of ketones from C3 -C6 secondary alcohols” (priority 1979, dated 1981).
“Also recorded” adds a separate entry of the source.

Assays:
[1] = test system: purified secondary alcohol dehydrogenase (SADH); experiment: inhibition of purified SADH by metal-chelating agents, thioreagents, metals; type: biochemical, Pseudomonas sp. ATCC 21439; conditions: for % inhibition of SADH activity: each inhibitor at a final concentration of 1 mM, measured spectrofluorometrically
Description: Secondary alcohol dehydrogenase (SADH) from an obligate methanol utilizer, Pseudomonas sp. ATCC 21439 was purified as follows. […] 0.05 M sodium phosphate buffer, pH 7.0 with 0.5 mM dithiothretol (buffer A) and were disrupted sonically (5×1 min.). The crude extract was separated by centrifugation. The crude extract was heat-treated at 50° C. in a water bath for 10 minutes. The resulting precipitate was removed by centrifugation. To the supernatant solution, 25 ml of protamine sulfate solution (2% solution in 0.1 M Tris base) was added dropwise with continuous stirring. After standing for 30 minutes, the extract was centrifuged. The supernatant solution was fractionated with solid ammonium sulfate. […] This DEAE-cellulose eluate was concentrated by ammonium sulfate fractionation. Material precipitating between 30 and 50% ammonium sulfate saturation was collected by centrifugation and dialyzed overnight against A. This fraction was further washed and filtered through an Amicon unit with XM 50 membrane. The concentrated fraction (6 ml) inside the Amicon unit was applied to an Affi-Gel Blue column (0.8 cm×18 cm) which had been equilibrated with buffer A for affinity chromatography. The column was washed overnight with buffer A (0.18 ml./min.) and then was eluted with buffer A containing 5 mM NAD. Each 1 ml. fraction was collected.
The purified secondary alcohol dehydrogenase enzyme (SADH) may be used directly for converting C3 -C6 secondary alcohols to the corresponding methyl ketones by the procedures described above; however, a source of NAD^+ must be added to the reaction medium. One can determine the NAD-linked secondary alcohol dehydrogenase activity with a fluorescence spectrophotometer (Perkin Elmer, Model MPF 44A) by following the formation of reduced NAD (Ex 340 nm, Em 460 nm). The assay system (3 ml.) will typically contain: sodium phosphate buffer pH 7.0, 150 μmol; NAD 1.0 μmol; a given amount of enzyme preparation; and 20 μmol secondary alcohol. The reaction is started by the addition of secondary alcohol. One unit of SADH enzyme activity represents the reduction of one nmole NAD per minute.
The effect of metal-chelating agents and thioreagents on the activity of the purified SADH enzyme were studied. […] The possibility of ethanol or n-propanol as an inhibitor was studied.

[2] = test system: purified secondary alcohol dehydrogenase; experiment: inhibition of purified yeast SADH; type: biochemical, Pichia sp. NRRL Y-11,328; conditions: primary alcohols tested at 10^-3 M
Description: Large scale cultures of Pichia sp. NRRL Y-11,328 were grown with aeration at 30° C. in a 14-liter New Brunswick f fermentor in a mineral salt medium containing methanol (0.4%, v/v) as the sole carbon source. The cells (200 g., wet weight) were suspended in […] sodium phosphate buffer, pH 7.0, containing 1 mM dithiothreitol (buffer A), and crude extracts were prepared as described previously. To the crude extracts, 18 ml. of protamine sulfate solution [2% solution in 0.1 M tris (hydroxymethyl) aminomethane (tris) base] was added dropwise with continuous stirring. After standing for 30 min., the extracts were centrifuged at 20,000× g. for 60 min. The supernatant solution was fractionated with solid ammonium sulfate. Extracts were brought to 50% of saturation with respect to ammonium sulfate by addition of 313 g. of the salt per liter of extract. Precipitated proteins was removed by centrifugation, and 137 g. of ammonium sulfate was added per liter of the supernatant liquid to bring it to 70% of saturation. Material precipitating between 50 and 70% of saturation was collected by centrifugation and dissolved in buffer A. This preparation was dialyzed overnight against buffer A, and the dialyzed material was applied to a DEAE-cellulose column (5×40 cm) that had been equilibrated with buffer A. The sample was washed with 200 ml. of buffer A and eluted with 2 liters of buffer A that contained NaCl in a linear gradient running from a concentration of 0 to 0.5 M. Fractions of 15 ml. were collected. Fractions containing secondary alcohol dehydrogenase activity were pooled and were termed DEAE-cellulose eluate. The DEAE-cellulose eluate was concentrated by ammonium sulfate fractionation.
Secondary alcohol dehydrogenase activity was measured spectrophotometrically at 340 nm with a NAD^+ as an electron acceptor. The reaction mixture, in a total 3.0 ml., contained 50 mM phosphate buffer, pH 8.0, 5 μmoles NAD^+, crude extracts, and substrate. The reactions were started by addition of 100 μl of 0.1 M substrate and the rate of NAD^+ reduction was measured. Protein concentration was determined by the method of Lowry et al.
Various primary alcohols not oxidized by secondary alcohol dehydrogenase were tested as potential inhibitors of enzyme activity.

[3] = test system: cell-free particulate fractions of methane-grown methylotrophs; experiment: inhibitors and electron donors of n-alkane conversion to sec. alcohols by cell-free particulate fractions; type: biochemical
Excerpt: The conditions for preparing the cell suspensions or the cell-free particulate fractions from methane-grown methylotroph microorganisms is the same as described above.

[4] = test system: cell suspensions of C1-utilizers; experiment: studies on production of 2-butanone from 2-butanol by cell suspensions of the strains tested; type: cell-based; conditions: for inhibition of production of 2-butanone from 2-butanol by cell suspensions: strains tested
Excerpt: The following summarizes tests conducted on the optimal conditions for the production of methyl ketones from C3 -C6 sec. alcohols.
The substrate specificity for the oxidation of C3 -C6 secondary alcohols by the strains of C1 -utilizers was studied.

[5] = test system: cell-free extracts of strain ATCC 21439; experiment: stoichiometry of production of 2-butanone from 2-butanol by cell-free extracts (Table IX); type: biochemical, Pseudomonas sp. ATCC 21,439; conditions: for NAD Consumed: fluorescence spectrophotometrically
Description: The reaction mixtures 3 ml (1.0 mg protein) were incubated at 30°
^(a) Determined gas chromatographically.
^(b) Determined fluorescence spectrophotometrically.
consumption of NAD was corrected.

cell-free SADH system = experiment: cofactor requirement of the cell-free SADH systems; type: biochemical; conditions: cell-free systems tested
Description: To prepare the cell-free secondary alcohol dehydrogenase (SADH) system, the washed cells were disrupted with a Wave Energy Ultrasonic Oscillator, Model W201 (Wave Energy System, Inc., Newtown, Pa.) and centrifuged at 20,000×g. for 30 minutes. […] The enzyme activity was measured with a fluorescence spectrophotometer (Perkin Elmer, Model MPF 44A) by following the formation of reduced NAD (EX 340 nm, Em 460 nm). The formation of reduced NAD was also followed with an absorption spectrophotometer at 340 nm. The assay system (3 ml.) contained: potassium phosphate buffer pH 7.0; 150 μmol.; NAD 1 μmol.; a given amount of enzyme preparation; and secondary alcohol 10 μmol. The reaction was started by the addition of substrate. One unit of enzyme activity represents the reduction of one μmole NAD per minute. Protein concentrations were determined by the Lowry method (J. Biol. Chem., 193: 255-275 (1951)).

[6] = test system: purified secondary alcohol dehydrogenase; experiment: substrate specificity, electron acceptor and stoichiometry of purified yeast SADH
[7] = test system: Methylobacter capsulatus Y (NRRL B-11,201); experiment: n-alkanes to methyl ketones by resting cell suspensions (Table I); type: cell-based; conditions: cells grown on methane; 30° C.
Description: (§1) The pH of the nutrient medium was adjusted to 7.0 by the addition of acid or base and 50 ml. samples of the nutrient medium were charged into a plurality of 300 ml. shaker flasks. […] The isolates had been maintained on methanol (0.4% V/V) agar plates or on agar plates under an atmosphere of methane and air having a 1:1 V/V gas ratio which had been transferred every two weeks. For growth on methanol, the medium was supplemented with 0.4% methanol. For growth on methane, the gaseous phase of the inoculated flasks was replaced with a gas mixture comprised of methane and air having a ratio of 1:1 on a V/V basis. The inoculated flasks were sealed air-tight and were incubated on a rotary shaker of orbital radius 2.5 cm. at 250 rpm and at 30° C. for two days until turbidity in the medium had developed. The cells were harvested by centrifugation at 10,000×g. at 4° C. for 30 minutes. The cell pellet was washed twice with a 0.05 M phosphate buffer at a pH of 7.0 (containing 0.02 M MgCl2). The washed cells were then suspended in a 0.05 M phosphate buffer at pH 7.0.
(§2) A 0.5 ml. sample of each washed cell suspension (2 mg. cells) was put into 10 ml. vials at 4° C. which were sealed with a rubber cap. The gaseous phase of the vials was removed with vacuum and then was replaced with a gas mixture of the substrate reactant (i.e., alkane or secondary alcohol) and oxygen at a 1:1 V/V ratio. (In the case of a liquid substrate, i.e., secondary alcohol, 10 μl of the substrate was put in the 10 ml. vials). The vials were then incubated at 30° C. on a rotary shaker at 300 rpm. Samples of product (1-3 μl) were withdrawn periodically with a microsyringe and the products were analyzed by gas chromatography (ionization flame detector column).

[8] = test system: Methylosinus trichosporium OB3b (NRRL B-11,196); experiment: as above; type: cell-based; conditions: cells grown on methane; 30° C.
Description: as §1, §2

[9] = test system: Methylocystis parvus OBBP (NRRL B-11,198); experiment: as above; type: cell-based; conditions: cells grown on methane; 30° C.
Description: as §1, §2

[10] = test system: Methylomonas methanica SI (NRRL B-11,199); experiment: as above; type: cell-based; conditions: cells grown on methane; 30° C.
Description: as §1, §2

[11] = test system: Methylobacterium organophilum XX; experiment: as above; type: cell-based; conditions: cells grown on methane; 30° C.
Description: as §1, §2

[12] = test system: Methylococcus capsulatus Texas (ATCC 19069); experiment: as above; type: cell-based; conditions: cells grown on methane; 30° C.
Description: as §1, §2

[13] = test system: Methylococcus capsulatus (Texas, ATCC 19,069); experiment: n-alkanes to secondary alcohols by cell suspensions (Table XVI); type: cell-based; conditions: Growth Substrate Methane
Excerpt: (§3) Both cell suspensions (particulate fraction) and cell-free particulate fraction of methane-grown methylotroph microorganisms are capable of catalyzing the conversion of C3 -C6 n-alkanes to the corresponding alcohols including secondary alcohols. The conditions for preparing the cell suspensions or the cell-free particulate fractions from methane-grown methylotroph microorganisms is the same as described above. The cell-free particulate fraction requires the presence of oxygen and NADH as an electron donor. […] Tables XVI and XVII show the conversion of C3 -C6 n-alkanes to the corresponding secondary alcohols using cell suspensions and cell-free particulate fractions, respectively, of methane-grown methylotroph microorganisms.
(§4) ^(a) The product secondary alcohols were identified and estimated by […]

[14] = test system: Methylosinus trichosporium (OB3b, NRRL-B-11,196); experiment: as above; type: cell-based; conditions: Growth Substrate Methane
Excerpt: as §3, §4

[15] = test system: Methylobacterium sp. (CRL-26, NRRL-B-11,208); experiment: as above; type: cell-based; conditions: Growth Substrate Methane
Excerpt: as §3, §4

c1cnc2c(c1)ccc1cccnc12 [1,10-phenanthroline]
% inhibition of SADH activity [1]: 95% | inhibition of purified yeast secondary alcohol dehydrogenase activity [2]: strongly inhibited | inhibition of conversion of n-alkanes to sec. alcohols (words) [3]: inhibited | inhibition of production of 2-butanone from 2-butanol by cell suspensions [4]: inhibited

CCC(C)=O [2-butanone]
2-Butanone Produced ([5]; Experiment 2: 20 min., gas chromatographically): 520 nmol | inhibition of SADH activity [1]: inhibited | further oxidation / degradation of 2-butanone by viable cell suspensions ([4]; 8 μmoles of 2-butanone added): Some enzymatic degradation; also recorded: slowly disappeared | inhibition of production of 2-butanone from 2-butanol by cell suspensions [4]: No product (2-butanone) inhibition was observed; also recorded: did not inhibit

N[C@@H](CCC(=O)N[C@@H](CS)C(=O)NCC(=O)O)C(=O)O [GSH, glutathione]
inhibition of purified yeast secondary alcohol dehydrogenase activity [2]: strongly inhibited | effectiveness as cofactor for oxidation of 2-butanol / C3-C6 secondary alcohols (cell-free SADH system): not effective

NC(=O)c1ccc[n+]([C@@H]2O[C@H](COP(=O)([O-])OP(=O)(O)OC[C@H]3O[C@@H](n4cnc5c(N)ncnc54)[C@H](O)[C@@H]3O)[C@@H](O)[C@H]2O)c1 [NAD, Nicotinamide adenine dinucleotide, reference compound]
NAD Consumed ([5]; Experiment 1: 10 min.): 270 nmol | NAD Consumed ([5]; Experiment 2: 20 min.): 540 nmol | ability to act as electron acceptor/carrier for the purified enzyme [6]: required | effectiveness as cofactor for oxidation of 2-butanol / C3-C6 secondary alcohols (cell-free SADH system): required

O=S(=O)([O-])[O-].[Cu+2] [cupric sulfate]
inhibition of purified yeast secondary alcohol dehydrogenase activity [2]: inhibited

c1c[nH]cn1 [imidiazole]
inhibition of purified yeast secondary alcohol dehydrogenase activity [2]: strongly inhibited

N#C[S][Hg][S]C#N [mercuric thiocyanate]
inhibition of purified yeast secondary alcohol dehydrogenase activity [2]: inhibited

CCCCCC [n-Hexane, n-hexane]
Conversion Rates, n-alkane to corresponding methyl ketone [7]: 0.07 μmoles/hr/mg protein | Conversion Rates, n-alkane to corresponding methyl ketone [8]: 0.05 μmoles/hr/mg protein | Conversion Rates, n-alkane to corresponding methyl ketone [9]: 0.04 μmoles/hr/mg protein | Conversion Rates, n-alkane to corresponding methyl ketone [10]: 0.02 μmoles/hr/mg protein | Conversion Rates, n-alkane to corresponding methyl ketone [11]: 0.09 μmoles/hr/mg protein | Conversion Rates, n-alkane to corresponding methyl ketone [12]: 0.09 μmoles/hr/mg protein | Conversion Rate, n-alkane to corresponding secondary alcohol [13]: 0.01 μmoles/hr/^5 mg. protein | Conversion Rate, n-alkane to corresponding secondary alcohol [14]: 0.01 μmoles/hr/^5 mg. protein | Conversion Rate, n-alkane to corresponding secondary alcohol [15]: 0.007 μmoles/hr/^5 mg. protein

CCCCC [n-Pentane, n-pentane]
Conversion Rates, n-alkane to corresponding methyl ketone [7]: 0.63 μmoles/hr/mg protein | Conversion Rates, n-alkane to corresponding methyl ketone [8]: 0.72 μmoles/hr/mg protein | Conversion Rates, n-alkane to corresponding methyl ketone [9]: 0.51 μmoles/hr/mg protein | Conversion Rates, n-alkane to corresponding methyl ketone [10]: 0.28 μmoles/hr/mg protein | Conversion Rates, n-alkane to corresponding methyl ketone [11]: 0.58 μmoles/hr/mg protein | Conversion Rates, n-alkane to corresponding methyl ketone [12]: 0.42 μmoles/hr/mg protein | Conversion Rate, n-alkane to corresponding secondary alcohol [13]: 0.032 μmoles/hr/^5 mg. protein | Conversion Rate, n-alkane to corresponding secondary alcohol [14]: 0.06 μmoles/hr/^5 mg. protein | Conversion Rate, n-alkane to corresponding secondary alcohol [15]: 0.01 μmoles/hr/^5 mg. protein

O=C(O)c1cc[c]([Hg+])cc1.[OH-] [p-hydroxymercuribenzoate]
% inhibition of SADH activity [1]: 100% | inhibition of purified yeast secondary alcohol dehydrogenase activity [2]: strongly inhibited

O=[N+]([O-])[O-].[Ag+] [silver nitrate]
inhibition of purified yeast secondary alcohol dehydrogenase activity [2]: inhibited
